Results published in the supplement of paper PMC5412046.
Where a name gives a salt, the structure may show the parent alone.

Assays:
SB.mhdgc-1 [1] = assay: viability at highest tested concentration (MAXR) relative to DMSO; higher = less cytotoxic; details: SB.mhdgc-1 (hereditary c.1380delA CDH1 gastric cancer)
Procedure, shortened: (§1)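 Each entry is viability relative to DMSO, given either at the highest concentration tested or as a trapezoidal area under the curve. Gastric cancer cells from hereditary or sporadic patients (500 cells in 5 μL medium per 1536 well) received compound in DMSO at 11 threefold-diluted concentrations, 23 nL by pintool. Luminescence from CellTiter-Glo was read after 48 h.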

SB.msgc-1 [2] = assay: as above; details: SB.msgc-1 (sporadic gastric cancer)
Procedure, shortened: as §1

SB.mhdgc-1 [3] = assay: area under the dose-response curve of % viability (trapezoidal, 11 doses) (% viability x log10 concentration); higher = less cytotoxic; details: SB.mhdgc-1 (hereditary c.1380delA CDH1 gastric cancer)
Procedure, shortened: as §1

SB.msgc-1 [4] = assay: as above; details: SB.msgc-1 (sporadic gastric cancer)
Procedure, shortened: as §1

SMILES | viability (SB.mhdgc-1 [1]) | viability (SB.msgc-1 [2]) | area under the dose-response curve (SB.mhdgc-1 [3]) | area under the dose-response curve (SB.msgc-1 [4])
Cn1cc(-c2ccncc2)c(-c2ccc(OCc3ccc4ccccc4n3)cc2)n1 [MP-10] (top concentration 46.0829 µM) | 84.7% | 55.8% | 583 | 495
CC[C@H](C)C(=O)O[C@H]1C[C@H](O)\C=C2\C=C/[C@H](C)[C@H](CC[C@@H](O)C[C@@H](O)CC(O)=O)[C@@H]12 [Pravastatin sodium] (top concentration 46.0829 µM) | 121% | 91.1% | 557 | 525
CCOC(=O)[C@H]1O[C@@H]1C(=O)N[C@@H](CC(C)C)C(=O)NCCC(C)C [Aloxistatin] (top concentration 46.0829 µM) | 63.4% | 84.6% | 510 | 515
Nc1nc(F)nc2c1ncn2[C@@H]1O[C@H](COP(=O)(O)O)[C@@H](O)[C@@H]1O [Fludarabine phosphate] (top concentration 46.0829 µM) | 35.8% | 47.7% | 490 | 524
C/C=C/C/C=C/CCC(=O)[C@H]1O[C@H]1C(N)=O [Cerulenin] (top concentration 46.0829 µM) | 67.9% | 75% | 475 | 562
O=[N+]([O-])c1cnc(Sc2nnc(O)n2-c2ccc3c(c2)OCCO3)s1 [BI-78D3] (top concentration 46.0829 µM) | 0.724% | -0.375% | 349 | 444
Cc1cccc(CN2CCN(C(c3ccccc3)c3ccc(Cl)cc3)CC2)c1 (stereo not drawn) [Meclizine hydrochloride] (top concentration 46.0829 µM) | 28.8% | 41.1% | 505 | 468
CC(C)C1NC(=O)C(NC(=O)C2=C3\N=C\4/C(=C(C)\C(=O)\C(=C4C(=O)NC5C(C)OC(=O)C(C(C)C)N(C)C(=O)CN(C)C(=O)C6CCCN6C(=O)C(NC5=O)C(C)C)N)OC3=C(C)C=C2)C(C)OC(=O)C(C(C)C)N(C)C(=O)CN(C)C(=O)C7CCCN7C1=O (stereo not drawn) [Actinomycin D] (top concentration 46.0829 µM) | 47.9% | 44.2% | 273 | 233
CCC(C)(C)c1ccc(CC(C)CN2C[C@@H](C)O[C@@H](C)C2)cc1 (stereo partly drawn) [Amorolfine hydrochloride] (top concentration 46.0829 µM) | 24.3% | 71.4% | 378 | 467
C[C@]12C[C@H](O)[C@H]3[C@@H](CC\C4=C\C(=O)\C=C/[C@]34C)[C@@H]1CC[C@]2(O)C(=O)CO [Prednisolone] (top concentration 46.0829 µM) | 70.8% | 79.8% | 558 | 571
Cl.Cl.Cl.O[C@@H](COc1cccc2ncccc12)CN1CCN([C@@H]2c3ccccc3[C@@H]3[C@H](c4ccccc42)C3(F)F)CC1 [Zosuquidar trihydrochloride] (top concentration 46.0829 µM) | 3.66% | 9.33% | 416 | 304
CN1C(=O)C(Cc2c[nH]c3ccccc23)NC1=S (stereo not drawn) [Necrostatin-1] (top concentration 46.0829 µM) | 105% | 82.5% | 501 | 494
C[C@H]1[C@@H](CC(C[C@H]2O[C@@H]3O[C@]4(C)CC[C@H]5[C@H](C)CC[C@@H]([C@H]2C)[C@@]35OO4)C[S+](=O)([O-])c2ccc(COC(=O)N(C)C)cc2)O[C@@H]2O[C@]3(C)CC[C@H]4[C@H](C)CC[C@@H]1[C@@]24OO3 [ASR-isobudimer-SO2Ph-4-CH2OC(O)NMe2] (top concentration 46.0829 µM) | 32.1% | 70.4% | 377 | 487
Cc1cn([C@@H]2O[C@H](CO)[C@@H](O)[C@@H]2F)c(=O)[nH]c1=O [Clevudine] (top concentration 46.0829 µM) | 105% | 111% | 541 | 531
CC(=O)N(C)C1(c2ccccc2)CCN(CCC[C@]2(c3ccc(Cl)c(Cl)c3)CCCN(C(=O)c3ccccc3)C2)CC1 [Osanetant] (top concentration 46.0829 µM) | 3.99% | 15.8% | 468 | 469
CNC(=O)c1cc(Oc2ccc(NC(=O)Nc3cc(C(C)(C)C)nn3-c3ccc4ncccc4c3)c(F)c2)ccn1 [DCC-2036] (top concentration 46.0829 µM) | 74.5% | 42.9% | 421 | 451
COc1cnc(N[S+](=O)([O-])c2ccc(N)cc2)nc1 [Sulfameter] (top concentration 46.0829 µM) | 65.7% | 43.3% | 509 | 512
CN(C)c1ccc(Nc2nc(N)n(C(=O)c3c(F)cccc3F)n2)cc1 (top concentration 46.0829 µM) | 49.4% | 56.1% | 520 | 495
CCOC(=O)Nc1ccc(NCc2ccc(F)cc2)nc1N [Flupirtine maleate] (top concentration 46.0829 µM) | 131% | 81.6% | 574 | 539
Clc1ccc(C(Cn2ccnc2)OCc2ccsc2Cl)c(Cl)c1 (stereo not drawn) [Tioconazole] (top concentration 46.0829 µM) | 87.4% | 57.8% | 544 | 538
Cc1cc(SCc2sc(-c3ccc(C(F)(F)F)c(F)c3)nc2C)ccc1OCC(=O)O [GW-0742] (top concentration 46.0829 µM) | 102% | 37.2% | 574 | 350

SMILES | viability (SB.mhdgc-1 [1]) | viability (SB.msgc-1 [2]) | area under the dose-response curve (SB.mhdgc-1 [3]) | area under the dose-response curve (SB.msgc-1 [4])
Cc1nc(NC(=O)N2CCC[C@H]2C(N)=O)sc1-c1ccnc(C(C)(C)C(F)(F)F)c1 [BYL-719] (top concentration 46.0829 µM) | 24.8% | 52.4% | 337 | 436
CC1(C)CCC(=C(\C1)C2=CC=C(Cl)C=C2)/CN3CCN(CC3)C4=CC(=C(C=C4)C(=O)N[S+]([O-])(=O)C5=CC=C(NCC6CCOCC6)C(=C5)[N+]([O-])=O)OC7=CN=C8[NH]C=CC8=C7 [ABT-199] (top concentration 46.0829 µM) | 3.26% | 21.7% | 498 | 501
CC(=O)O[C@H]1C[C@@H]2CC[C@@H]3[C@H](CC[C@@]4(C)[C@H]3C[C@H]([N+]3(C)CCCCC3)[C@@H]4OC(C)=O)[C@@]2(C)C[C@@H]1N1CCCCC1 [Vecuronium bromide] (top concentration 46.0829 µM) | 49.1% | 66% | 492 | 526
Cc1ccccc1N1C(=O)c2cc([S+](N)(=O)[O-])c(Cl)cc2NC1C (stereo not drawn) [Metolazone] (top concentration 46.0829 µM) | 97% | 101% | 571 | 529
Cc1cnc(C(=O)O)c[n+]1[O-] [Acipimox] (top concentration 46.0829 µM) | 136% | 106% | 589 | 545
CC(=O)N1CCN(c2ccc(OCc3nn(C)c(C)c3-c3cccc4c(CCCOc5cc(C)c(Cl)c(C)c5)c(C(=O)O)n(Cc5cccnc5)c34)cc2)CC1 (top concentration 46.0829 µM) | 48.8% | 26.9% | 425 | 498
NC(=O)c1cccc(-c2cc(Nc3ccc(OC(F)(F)F)cc3)ncn2)c1 [GNF 2] (top concentration 46.0829 µM) | 68.4% | 48.7% | 537 | 488
C\C1=N\N=C(\C2=CC=C(N)C=C2)C3=CC4=C(OCO4)C=C3C1 (top concentration 46.0829 µM) | 141% | 113% | 561 | 547
O=C(OC)[C@]12CC[C@@]3(C)[C@]4(C)CC[C@H]5[C@@](C)(C)C(=O)C(=C[C@]5(C)C4=CC(=O)[C@@H]3[C@@H]2C[C@](C)(C)CC1)C#N [Bardoxolone methyl] (top concentration 46.0829 µM) | 1.98% | 1.51% | 316 | 282
CSCC[C@@H](NC(=O)[C@@H](Cc1ccccc1)NC(=O)CNC(=O)CNC(=O)[C@@H](N)Cc1ccc(O)cc1)C(=O)O [Metenkephalin] (top concentration 46.0829 µM) | 140% | 120% | 556 | 558
Nc1ncnc2c1c(-c1cccc(OCc3ccccc3)c1)cn2C1CC(CN2CCC2)C1 (stereo not drawn) [NVP-AEW541] (top concentration 46.0829 µM) | 44.9% | 55.9% | 482 | 484
CCCCC(F)(F)[C@@]1(O)CC[C@H]2[C@@H](CC(=O)[C@@H]2CCCCCCC(=O)O)O1 [Lubiprostone] (top concentration 46.0829 µM) | 57.7% | 40.1% | 513 | 495
COC(=O)C/1=C(C)/N/C(=C(\C1C2=CC(=CC=C2)[N+]([O-])=O)C(=O)OCCCN3CCC(CC3)(C4=CC=CC=C4)C5=CC=CC=C5)C (stereo not drawn) [Niguldipine] (top concentration 46.0829 µM) | 118% | 84.7% | 621 | 450
CN1[C@@H]2CC(OC(=O)[C@@H](CO)c3ccccc3)C[C@H]1[C@H]1O[C@H]12 (stereo partly drawn) [Scopolamine] (top concentration 27.1225 µM) | 75% | 99.7% | 506 | 485
COc1ccccc1OCC(O)CN1CCN(CC(=O)Nc2c(C)cccc2C)CC1 (stereo not drawn) [Ranolazine] (top concentration 46.0829 µM) | 72% | 103% | 539 | 519
O=C(O)CCC1CCC(c2cc(F)ccc2F)([S+](=O)([O-])c2ccc(Cl)cc2)CC1 (stereo not drawn) [MK-0752] (top concentration 46.0829 µM) | 78.9% | 58.6% | 435 | 479
CC(S)C(=O)NCC(=O)O (stereo not drawn) [Tiopronin] (top concentration 46.0829 µM) | 81.2% | 110% | 473 | 557
CCn1c(=O)c2c(nc(/C=C/c3ccc(OC)c(OC)c3)n2C)n(CC)c1=O [Istradefylline] (top concentration 46.0829 µM) | 64.2% | 67.9% | 543 | 546
Nc1n[nH]c2nnc(-c3c(-c4ccccc4)nn4ccccc34)cc12 (top concentration 46.0829 µM) | 28% | 14.2% | 438 | 445
Cc1n[nH]c(C)c1Cc1sc2c(c1C(=O)N1C[C@H](O)CO1)c(=O)n(C)c(=O)n2CC(C)C (top concentration 46.0829 µM) | 92.3% | 118% | 549 | 620
C=C1CCC2[C@](C)(CO)C(O)CC[C@]2(C)C1C/C=C1/C(=O)OCC1O (stereo partly drawn) [Andrographolide] (top concentration 92.1659 µM) | 122% | 122% | 517 | 565
